Measured values taken from patent US20260374829A1, “METHODS AND PLATFORM RELATED TO FLUORESCENT PROTEIN BIOSENSORS” (BOARD OF REGENTS, THE UNIVERSITY OF TEXAS SYSTEM, priority 2023, published 2026).

Columns and labels:
[1] = tested on: free ADPR sensor (cpVenus integrated between amino acids 118 and 119 of Shewanella oneidensis NrtR, Uniprot Q8EFJ3; K435A, S436D, D122N), SEQ ID NO: 1; test: Fluorescence response of purified free ADPR sensor to ligands in vitro; format: binding; settings: role: ligand; for sensor fluorescence response (in words): FIG. 5A; for sensor responsivity (in words): structurally related molecules, FIG. 5
Excerpt: (§1) The sensor is based on a circularly-permutated single fluorescent protein design (Baird et al, 1999 PNAS and reviewed in Nasu et al, 2021 Nat Chem Biol). For the fluorescence readout, the GFP-derived fluorescent protein, Venus, was used. Venus was circularly permutated and reforms to its fluorescent beta barrel fold by introducing a cut between amino acids 144 and 145 and connecting its original N- and C-termini with a 5 amino acid GGSGG linker sequence (circularly permutated Venus now referred to as cpVenus or cpV). Circular permutation permits attachment of an analyte binding domain in close proximity to the chromophore of Venus. The analyte binding domain confers selectivity of ligand binding to the sensor. The Nudix-like bacterial transcription factor NrtR from Shewanella oneidensis was used that is an ADPR-dependent transcriptional repressor (Rodionov et al, 2008 Nucleic Acids Res; Gao et al, 2019 eLIFE). The cpV protein was integrated between amino acids 118 and 119 in the sequence of NrtR (Uniprot Q8EFJ3).
Based on these analyses, cpV integrated into site 118/119 in NrtR was chosen for further analyses. This site is adjacent to the hinge region of the ligand-binding site, and it is within an alpha-helix that undergoes a disruptive loss of secondary structure when free ADPR binds (FIG. 1). The model is that this structural change is transduced to the nearby chromophore of cpV to cause a change in fluorescence intensity. This may occur through disruption of the chromophore or shifting the pKa of the chromophore.
Due to the compact nature of NrtR, attempts to use truncation to eliminate the DNA-binding domain appeared to destabilize the whole protein and thus could not be used. Instead, three point mutations were identified and used to ablate the outward facing overall positive change on this domain. These point mutations are distinct from the ligand-binding domain. The specific sites and their mutations (K435A and S436D) were identified through empirical screening and it was determined that in combination they alleviated aggregation of the sensor when it was ectopically expressed (FIG. 2).
The mutation D122N was also incorporated to reduce the number of polar and charged side-chains in proximity to the sensor's chromophore. The rationale was that charged residues could shift the local pKa of the chromophore promoting in its protonation. Introduction of D122N improved the brightness of the sensor and stabilized its pH-sensitivity between pH 7.4-8.0 (FIG. 3)
The sequence of the free ADPR sensor is shown in SEQ ID NO: 1.
The purified sensor (FIG. 4) decreased in fluorescence intensity with addition of free ADPR. At high concentrations, it saturated with ~80% diminishment of sensor brightness that represented an […] dose-dependent response (FIG. 4B, red). […] It was determined that the sensor responds to free ADPR with a Kd~2 μM±1 μM and is thus poised to detect intracellular free ADPR concentrations (Heiner, et al, 2006 Biochem J; Gasser and Guse, 2005 J Chromatogr B Analyt Technol Biomed Life Sci; Gasser et al, 2006 J Biol Chem).

free ADPR sensor = test: Free ADPR sensor response in live cells to H2O2 treatment (confocal microscopy); format: cell-based; settings: role: activator (oxidation stress), acute H2O2 treatment, FIG. 7
Experimental: (§2) Values are mean (F/F0)±SD, analyzed by confocal microscopy.
(§3) With confocal imaging, it was determined that the free ADPR sensor responded in live cells to an accumulation of free ADPR upon oxidation stress by acute H2O2 treatment (FIG. 7). In this experimental paradigm, H2O2 induces PARP1/2 to generate poly-ADPR chains, and due to the activities of glycohydrolases, this in turn leads to increased levels of free ADPR monomers. […] The generation of free ADPR was confirmed by a GCaMP7s sensor that monitored the resulting Ca^2+ influx from activation of co-expressed TRPM2 (FIG. 7B).

TRPM2 = TRPM2 response in live cells to H2O2 treatment, Ca2+ influx reported by GCaMP7s; format: cell-based; settings: role: activator (via increased free cytosolic ADPR), GCaMP7s readout, FIG. 7B
Experimental: as §2, §3

[2] = tested on: free ADPR sensor no binding control R98E (cpVenus in Shewanella oneidensis NrtR, Uniprot Q8EFJ3; binding pocket mutant R98E), SEQ ID NO: 2; test: Fluorescence response of non-binding control sensor to ligands in vitro; settings: role: ligand, FIG. 4B
Excerpt: as §1
The purified sensor (FIG. 4) decreased in fluorescence intensity with addition of free ADPR. At high concentrations, it saturated with ~80% diminishment of sensor brightness that represented an ~4-fold dose-dependent response (FIG. 4B, red). […]

PARP1/2 = test: Free ADPR sensor response in live cells after acute H2O2 treatment (confocal imaging), with PARP1/2 inhibitor; format: cell-based; settings: role: inhibitor (PARP1/2), FIG. 7
Experimental: as §2, §3

SMILES | sensor fluorescence response (in words) [1] | other results
Nc1ncnc2c1ncn2[C@@H]1O[C@@H]2COP(=O)(O)OP(=O)(O)OC[C@H]3OC(O[C@@H]1[C@@H]2O)[C@H](O)[C@@H]3O [2′-cyclic ADPR] | does not respond | –
Nc1ncnc2c1ncn2[C@H]1C[C@H](O)[C@@H](COP(=O)(O)OP(=O)(O)OC[C@H]2OC(O)[C@H](O)[C@@H]2O)O1 (stereo partly drawn) [2′-deoxy ADPR] | responds | –
Nc1ncnc2c1ncn2[C@@H]1O[C@@H]2COP(=O)(O)OP(=O)(O)OC[C@H]3OC(O[C@H]2[C@H]1O)[C@H](O)[C@@H]3O [3′-cyclic ADPR] | does not respond | –
Nc1ncnc2c1ncn2[C@@H]1O[C@H](COP(=O)(O)OP(=O)(O)O)[C@@H](O)[C@H]1O [ADP, adenosine diphosphate] | does not respond | sensor responsivity (in words) [1]: minimal responsivity
Nc1ncnc2c1ncn2[C@@H]1O[C@H](COP(=O)(O)O)[C@@H](O)[C@H]1O [AMP, adenosine monophosphate] | does not respond | –
Nc1ncnc2c1ncn2[C@@H]1O[C@H](COP(=O)(O)OP(=O)(O)OP(=O)(O)O)[C@@H](O)[C@H]1O [ATP, adenosine triphosphate] | does not respond | sensor responsivity (in words) [1]: minimal responsivity
OO [H2O2] | – | free ADPR sensor response to accumulation of free ADPR (in words) (free ADPR sensor): responded; TRPM2 response, influx of intracellular Ca2+ (in words) (TRPM2): responds with an influx of intracellular Ca^2+
Nc1ncnc2c1ncn2[C@@H]1O[C@H](COP(=O)(O)OP(=O)(O)OC[C@H]2O[C@@H]([n+]3cccc(C(=O)O)c3)[C@H](O)[C@@H]2O)[C@@H](O)[C@H]1O [NAAD^+] | does not respond | –
NC(=O)C1=CN([C@@H]2O[C@H](COP(=O)(O)OP(=O)(O)OC[C@H]3O[C@@H](n4cnc5c(N)ncnc54)[C@H](O)[C@@H]3O)[C@@H](O)[C@H]2O)C=CC1 [NADH, nicotinamide adenine dinucleotide] | does not respond | –
NC(=O)c1ccc[n+]([C@@H]2O[C@H](COP(=O)(O)OP(=O)(O)OC[C@H]3O[C@@H](n4cnc5c(N)ncnc54)[C@H](O)[C@@H]3O)[C@@H](O)[C@H]2O)c1 [NAD^+, oxidized nicotinamide adenine dinucleotide] | does not respond | –
Nc1ncnc2c1ncn2[C@@H]1O[C@H](COP(=O)(O)OP(=O)(O)OC[C@H]2O[C@@H]([n+]3cccc(C(=O)O)c3)[C@H](O)[C@@H]2O)[C@@H](O)[C@H]1OP(=O)(O)O [NaADP^+] | does not respond | –
CC(=O)O[C@H]1C(O)O[C@H](COP(=O)(O)OP(=O)(O)OC[C@H]2O[C@@H](n3cnc4c(N)ncnc43)[C@H](O)[C@@H]2O)[C@H]1O (stereo partly drawn) [O-Acetyl ADPR] | responds | –
O=C(CO)[C@H](O)[C@H](O)COP(=O)(O)O [Ribulose-5-Phosphate] | does not respond | –
N=c1c2ncn3c2ncn1[C@@H]1O[C@H](COP(=O)(O)OP(=O)(O)OC[C@H]2O[C@@H]3[C@H](O)[C@@H]2O)[C@@H](O)[C@H]1O [cyclic ADPR] | does not respond | –
Nc1ncnc2c1ncn2[C@@H]1O[C@H](COP(=O)(O)OP(=O)(O)OC[C@H]2OC(O)[C@H](O)[C@@H]2O)[C@@H](O)[C@H]1O (stereo partly drawn) [free ADPR, Adenosine 5′Di-Phosphate Ribose] | responds | fluorescence intensity with increasing free ADPR concentrations (in words) ([1]; FIG. 4B, mean of n=3): decreases; diminishment of sensor brightness at saturation ([1]; at high concentrations (saturated)): ~ 80%; dose-dependent response (fold) ([1]; fluorescence intensity, at saturation): ~ 4 fold; response of binding mutant to free ADPR (in words) [2]: did not respond
O=C(c1cc(Cc2n[nH]c(=O)c3ccccc23)ccc1F)N1CCN(C(=O)C2CC2)CC1 [olaparib] | – | effect on H2O2-induced free ADPR sensor responses (in words) (PARP1/2): eliminated sensor responses
Nc1ncnc2c1ncn2[C@@H]1O[C@H](COP(=O)(O)OP(=O)(O)OC[C@H]2OC(O)[C@H](O)[C@@H]2O)[C@@H](O)[C@H]1OP(=O)(O)O (stereo partly drawn) [phospho ADPR] | responds | –
